From US4318916A, “Antibiotic PS-5 and derivatives having β-lactamase inhibitory activity and production thereof” (Sanraku-Ocean Co., Ltd., priority 1977, dated 1982)
Converted amounts (≈) assume the structure as drawn. Like-named read-outs stand apart in the source and are kept apart here.

Tests used:
[1] = test system: Staphylococcus aureus Smith; assay: MIC by broth dilution (Table 8); type: cell-based; settings: 20 h, read-out: Minimum inhibitory concentration
Experimental: (§1) The MIC values of antibiotic PS-5 sodium salt were determined on various pathogenic microorganisms including resistant strains by the broth dilution method utilizing the BRAIN HEART INFUSION BROTH `Eiken` (EIKEN CHEMICAL CO., LTD.).
(§2) The antibiotic PS-5 sodium salt was dissolved in BRAIN HEART INFUSION BROTH `Eiken` (EIKEN CHEMICAL CO., LTD.) (pH 7.0) at concentration in the range of 5-50 μg/ml, from which appropriate dilution series were made in the same liquid medium. The microorganisms listed in Table 8 were cultivated for 18 hours in BRAIN HEART INFUSION BROTH `Eiken` at 28° C. and inoculated into the said dilution series of antibiotic PS-5 at a final inoculum size of 1×10^5 cells/ml. The cultures were allowed to stand at 35° C. for 20 hours, and then the growth of the microorganisms was read at each dilution of antibiotic PS-5. The minimum inhibitory concentration (MIC) represents the smallest concentration of the antibiotic PS-5 (sodium salt) where no propagation of the relevant microorganism was visually confirmed. As the controls, two known beta-lactam antibiotics, cephaloridine and cefoxitin were dissolved in brain heart infustion broth at pH 7.0 at concentrations ranging from 1 μg/ml to 100 μ g/ml and then diluted to make several dilution series in the above mentioned liquid medium. These samples were treated as described above for the MIC determinations.

[2] = test system: Staphylococcus aureus EDA 209 P; assay: MIC by broth dilution (Table 8); type: cell-based; settings: EDA209P, 20 h, read-out: Minimum inhibitory concentration
Experimental: as §1, §2

[3] = test system: Streptococcus pyogenes NY-5; assay: MIC by broth dilution (Table 8); type: cell-based; settings: NY5, 20 h, read-out: Minimum inhibitory concentration
Experimental: as §1, §2

[4] = test system: Staphylococcus aureus Bx-1633; assay: MIC by broth dilution (Table 8); type: cell-based; settings: BX1633, 20 h, read-out: Minimum inhibitory concentration
Experimental: as §1, §2

[5] = test system: Bacillus subtilis ATCC 6633; assay: MIC by broth dilution (Table 8); type: cell-based; settings: ATCC6633, 20 h, read-out: Minimum inhibitory concentration
Experimental: as §1, §2

[6] = test system: Diplococcus pneumoniae Type III; assay: MIC by broth dilution (Table 8); type: cell-based; settings: Streptococcus pneumoniae, 20 h, read-out: Minimum inhibitory concentration
Experimental: as §1, §2

[7] = test system: Escherichia coli K12; assay: MIC by broth dilution (Table 13); type: cell-based; settings: 20 h
Experimental: (§3) The MIC (minimum inhibitory concentration) values of the compound were determined on various pathogenic microorganisms including several resistant strains, utilizing the broth dilution method in BRAIN HEART INFUSION BROTH `Eiken` (EIKEN CHEMICAL CO., LTD.).
(§4) The results were read after incubation at 35° C. for 20 hours. The minimum inhibitory concentration (MIC) values means the lowest concentration unit of the tritylation product of the antibiotic PS-5 was no growth of the corresponding microorganism was observed under the above described conditions. As the control antibiotics,the solutions of ampicillin and cephaloridine were prepared in BRAIN HEART INFUSION BROTH `Eiken` (pH 7.0) at a concentration of 100 μg/ml and treated same as the test compound of the present invention.

[8] = pH and heat stability of antibiotic PS-5 in aqueous solution; type: physicochemical; settings: phosphate buffer, yellowish brown powder of Example 5
Experimental: Phosphate buffer solutions of the indicated pH's were made by adjusting M/15 dipotassium phosphate to a desired pH with 5 N NaOH or 5 N phosphoric acid. To 1 milliliter of the antibiotic PS-5 solution, 1 milliliter of the phosphate buffer was added and, if necessary, the pH value was readjusted to the initial value. The antibiotic PS-5 solutions with varied pH's were kept at 60° C. for 30 minutes in a water bath, cooled in running water and neutralized to pH 7.0 with a small amount of 5 N NaOH or 5 N phosphoric acid. The control tube containing the antibiotic PS-5 solution of pH 7.0 was put in an ice bath for 30 minutes. The remaining antimicrobial activity was determined as described above, utilizing Comamonas terrigena B-996 as the assay microorganism. The results shown in the following table were calculated as percent of the control: […]

[9] = test system: male ddy mice; type: in vivo; settings: 500 mg/kg intraperitoneally
Experimental: An aqueous solution of the antibiotic PS-5 sodium salt was intraperitoneally administered to male ddy mice (Shizuoka) at the dose of 500 mg/kg.

[10] = test system: Staphylococcus aureus Smith; assay: In vivo activity of trityl ester in infected mice
Experimental: The in vivo activity of the tritylation product of the antibiotic PS-5 was measured in mice intraperitoneally infected with 5×10^3 cells/mouse of Staphylococcus aureus Smith. The trityl ester of the antibiotic PS-5 was subcutaneously injected just after infection.

[11] = test system: Enterobacter cloacae E-16; assay: MIC by broth dilution (Table 13); type: cell-based; settings: E16, 20 h
Experimental: as §3, §4

[12] = test system: Enterobacter aerogenes E-19; assay: MIC by broth dilution (Table 13); type: cell-based; settings: Klebsiella aerogenes, E19, 20 h
Experimental: as §3, §4

[13] = test system: Serratia marcescens S-18; assay: MIC by broth dilution (Table 13); type: cell-based; settings: S18, 20 h
Experimental: as §3, §4

**Q.** Which MIC ([1]; Staphylococcus aureus) does the source give for `O=C(Cc1cccs1)N[C@@H]1C(=O)N2C(C(=O)[O-])=C(C[n+]3ccccc3)CS[C@H]12` [Cephaloridine, cephaloridine] here?
**A.** The MIC was 0.031 µg/mL (≈ 0.0746 µM).

**Q.** What about the MIC ([2]; Staphylococcus aureus) of the same molecule?
**A.** Its MIC is 0.031 µg/mL (≈ 0.0746 µM).

**Q.** What about the MIC ([3]; Streptococcus pyogenes) of the same molecule?
**A.** The MIC was 0.008 µg/mL (≈ 0.0193 µM).

**Q.** And the MIC ([4]; Staphylococcus aureus)?
**A.** The MIC was 0.031 µg/mL (≈ 0.0746 µM).

**Q.** And the MIC ([5]; Bacillus subtilis)?
**A.** The MIC was 0.031 µg/mL (≈ 0.0746 µM).

**Q.** What about the MIC [6] of the same molecule?
**A.** The MIC was 0.031 µg/mL (≈ 0.0746 µM).

**Q.** And the MIC [7]?
**A.** Its MIC is 2.5 µg/mL (≈ 6.02 µM).

**Q.** Which MIC ([1]; Staphylococcus aureus Smith, PS-5 as sodium salt) does the source give for `CCC1C(=O)N2C(C(=O)O)=C(SCCNC(C)=O)CC12` (single isomer, unassigned) [Antibiotic PS-5] here?
**A.** Its MIC is 0.31 µg/mL.

**Q.** What about the MIC ([2]; Staphylococcus aureus EDA 209 P, PS-5 as sodium salt) of the same molecule?
**A.** Its MIC is 0.16 µg/mL.

**Q.** And the MIC ([3]; Streptococcus pyogenes NY-5, 10% horse blood supplemented into the medium)?
**A.** Its MIC is 0.08 µg/mL (≈ 0.268 µM).

**Q.** And the MIC ([4]; Staphylococcus aureus Bx-1633, PS-5 as sodium salt)?
**A.** The MIC was 0.16 µg/mL.

**Q.** And the MIC ([5]; Bacillus subtilis ATCC 6633)?
**A.** Its MIC is 0.16 µg/mL (≈ 0.536 µM).

**Q.** What about the MIC ([6]; Diplococcus pneumoniae Type III, 10% horse blood supplemented into the medium) of the same molecule?
**A.** The MIC was 0.02 µg/mL (≈ 0.067 µM).

**Q.** What about the remaining at 0.5 h ([8]; pH 3, pH 3.0, 60° C. for 30 minutes, percent of control) of the same molecule?
**A.** Its remaining at 0.5 h is 0%.

**Q.** And the remaining at 0.5 h ([8]; pH 4, pH 4.0, 60° C. for 30 minutes)?
**A.** Its remaining at 0.5 h is 0%.

**Q.** And the remaining at 0.5 h ([8]; pH 5, pH 5.0, 60° C. for 30 minutes)?
**A.** The remaining at 0.5 h was 9%.

**Q.** And the remaining at 0.5 h ([8]; pH 6, pH 6.0, 60° C. for 30 minutes)?
**A.** The remaining at 0.5 h was 79%.

**Q.** What about the remaining at 0.5 h ([8]; pH 7, pH 7.0, 60° C. for 30 minutes) of the same molecule?
**A.** The remaining at 0.5 h was 76.5%.

**Q.** What about the remaining at 0.5 h ([8]; pH 8, pH 8.0, 60° C. for 30 minutes) of the same molecule?
**A.** Its remaining at 0.5 h is 88.5%.

**Q.** And the remaining at 0.5 h ([8]; pH 9, pH 9.0, 60° C. for 30 minutes)?
**A.** Its remaining at 0.5 h is 82%.

**Q.** What about the “Deaths after intraperitoneal administration” value (“Deaths” for short) [9] of the same molecule?
**A.** The value was “does not provoke any dead”.

**Q.** For `CCC1C(=O)N2C(C(=O)OC(c3ccccc3)(c3ccccc3)c3ccccc3)=C(SCCNC(C)=O)CC12` (single isomer, unassigned) [Trityl PS-5], which 50% curative dose ([10]; male ddy mice, Staphylococcus aureus Smith, subcutaneous, in Comamonas-cephaloridine units) is on record?
**A.** Its 50% curative dose is 27,540 CCU/kg.

**Q.** What about the “Therapeutic effect in infected mice” value ([10]; mice infected with a pathogenic Gram-positive bacteria) of the same molecule?
**A.** The value was “marked therapeutic effect”.

**Q.** And the ED50 ([10]; sc, male ddy mice infected i.p. with 5×10^3 cells/mouse Staphylococcus aureus Smith, subcutaneously injected just after infection, read-out: 50% curative dose)?
**A.** The ED50 was 2.55 mg/kg.

**Q.** What about the MIC [11] of the same molecule?
**A.** Its MIC is 10 µg/mL (≈ 18.5 µM).

**Q.** And the MIC [7]?
**A.** The MIC was 5.37 µg/mL (≈ 9.93 µM).

**Q.** And the MIC [12]?
**A.** The MIC was 8.7 µg/mL (≈ 16.1 µM).

**Q.** And the MIC [13]?
**A.** Its MIC is 10 µg/mL (≈ 18.5 µM).

**Q.** And the “Deaths” value ([9]; listed as trityl ester of the antibiotic PS-5, 500 mg/kg)?
**A.** Its value is “did not provoke any dead”.

**Q.** What about the “Deaths” value ([9]; listed as trityl ester, 500 mg/kg) of the same molecule?
**A.** Its value is “does not provoke any dead”.
